Measured values from patent US12084430B2, “Tricyclic urea compounds as JAK2 V617F inhibitors” (Incyte Corporation, priority 2022, dated 2024).

Tests used:
[1] = tested on: STAT5 (Tyr694) phosphorylation in SET-2 cells; test: STAT5 (Tyr694) phosphorylation cell based assay; conditions: Homo sapiens, pSTAT5, 2 hours, read-out: SET2 IC50
Method: Example E. STAT5 (Tyr694) Phosphorylation Cell Based Assay
SET-2 cells was purchased from DSMZ (Germany). RPMI1640 medium, Fetal Bovine Serum and 384-white sold flat-bottom small volume plate were purchased from Thermo Fisher Scientific (Waltham, MA). Phospho-STAT5 (Tyr694) HTRF kit was purchased from Perkin Elmer (Waltham, MA).
SET-2 cells were cultured in RPMI media with 20% FBS at 37° C. in humidified incubator supplied with 5% CO2. On the day of assay, the cells were centrifuged to remove the culture media and resuspended with prewarmed RPMI with 10% FBS. Testing compounds were prepared by serial dilution in DMSO and 50 nL/well test compounds were transferred to the 384 white low volume cell culture plate (Greiner Bio-one) by ECHO liquid handler (Labcyte). The cells were then dispensed with Multidrop (Thermo Fisher, Waltham, MA) at 10 μL/well (7×10^6 cells/mL) with 0.5% DMSO in the final assay. After the treated cells were incubated for 2 hours at 37° C./5% CO2 incubator, 4 μL/well supplemented lysis buffer (100× blocking buffer diluted 25 fold in 4× lysis buffer, Perkin Elmer) were added and incubated at room temperature for 90 min on orbital shaker at 600 rpm. Phospho-STAT5 Cryptate antibody and Phospho-STAT5 d2 antibody (1:1 vol/vol) were premixed and diluted 20 fold with in the detection buffer (Perkin Elmer). 4 μL of the premixed antibody solution were added to each well followed with 24 hours incubation at room temperature on orbital shaker at 600 rpm. The product activity was determined by measuring the fluorescence at 620 nm and 665 nm on Pherastar microplate reader (BMG Labtech). A ratio is calculated (665/620) for each well. Wells with DMSO only served as the positive controls and wells containing high concentration of control compound were used as negative controls. IC50 determination was performed by fitting the curve of percent control activity versus the log of the compound concentration using the GraphPad Prism 7.0 software.

TRKA [2] = biological target: TRKA (Homo sapiens, UniProt P04629); test: TRKA enzymatic assay; format: biochemical; conditions: 1 mM ATP
Method: (§1) Example I. TRKA Enzymatic Assay
(§2) The kinase assays were carried out at 24° C. temperature in assay buffer (HEPES 50 mM, pH 7.0, NaN3 0.02%, BSA 0.01%, Orthovanadate 0.1 mM, DTT 1 mM, MgCl2 10 mM) in a final volume of 10 μL. Testing compounds were prepared by serial dilution in DMSO and transferred to the plate wells by ECHO liquid handler (Labcyte) with 0.5% DMSO in the final assay. […]. Reactions were initiated by the addition of 5 μL ATP in assay buffer. The final 10 μL kinase reaction consists of 0.58 nM TRKA, 1 mM ATP, 500 nM TK Substrate-biotin and SEB reagent 62.5 nM in assay buffer. […] After 60 minutes incubation at room temperature, the product activity was determined by measuring the fluorescence at 620 nm and 665 nm on Pherastar microplate reader (BMG Labtech). A ratio is calculated (665/620 nm) for each well. Wells with DMSO only were served as the positive controls and wells containing no ATP were used as negative controls. IC50 determination was performed by fitting the curve of percent control activity versus the log of the compound concentration using the Gene data.

TRKA [3] = test: TRKA enzymatic assay; format: biochemical
Method: as §1, §2

KIT = KIT enzymatic assay; format: biochemical
Method: Example D. KIT Enzymatic Assay
(§3) The kinase assays were carried out at room temperature in assay buffer (HEPES 50 mM, pH 7.0, NaN3 0.02%, BSA 0.01%, Orthovanadate 0.1 mM, DTT 1 mM, MgCl2 10 mM) in a final volume of 10 μL. Testing compounds were prepared by serial dilution in DMSO and transferred to the plate wells by ECHO liquid handler (Labcyte) with 0.5% DMSO in the final assay. […]. Reactions were initiated by the addition of 5 μL ATP in assay buffer. The final 10 μL kinase reaction consists of 0.12 nM KIT, 1 mM ATP, 500 nM TK Substrate-biotin and SEB reagent 62.5 nM in assay buffer. […] The plates were then sealed and centrifuged at 1800 rpm for 2 minutes. After 60 minutes incubation at room temperature, the product activity was determined by measuring the fluorescence at 620 nm and 665 nm on Pherastar microplate reader (BMG Labtech). A ratio is calculated (665/620 nm) for each well. Wells with DMSO only were served as the positive controls and wells containing no ATP were used as negative controls. IC50 determination was performed by fitting the curve of percent control activity versus the log of the compound concentration using the GraphPad Prism 7.0 software.

FLT3 = FLT3 enzymatic assay; format: biochemical
Method: Example C. FLT3 Enzymatic Assay
as §3, with “0.011” for “0.12”, “FLT3,” for “KIT,”

[4] = In vitro intrinsic clearance; format: in vitro ADME; conditions: human liver microsomes, 1 μM
Method: Example G. In Vitro Intrinsic Clearance Protocol
For in vitro metabolic stability experiments, test compounds were incubated with human liver microsomes at 37° C. The incubation mixture contained test compounds (1 μM), NADPH (2 mM), and human liver microsomes (0.5 mg protein/mL) in 100 mM phosphate buffer (pH 7.4). The mixture was pre-incubated for 2 min at 37° C. before the addition of NADPH. Reactions were commenced upon the addition of NADPH and quenched with ice-cold methanol at 0, 10, 20, and 30 min. Terminated incubation mixtures were analyzed using LC-MS/MS system. The analytical system consisted of a Shimadzu LC-30AD binary pump system and SIL-30AC autosampler (Shimadzu Scientific Instruments, Columbia, MD) coupled with a Sciex Triple Quad 6500+ mass spectrometer from Applied Biosystems (Foster City, CA). […] Mobile phase A consisted of 0.1% formic acid in water, and mobile phase B consisted of 0.1% formic acid in acetonitrile. The total LC-MS/MS runtime was 2.75 minutes with a flow rate of 0.75 mL/min. Peak area integrations and peak area ratio calculations were performed using Analyst software (version 1.6.3) from Applied Biosystems.
The in vitro intrinsic clearance, CLint, in vitro, was calculated from the t1/2 of test compound disappearance as CLint, in vitro=(0.693/t1/2)×(1/Cprotein), where Cprotein is the protein concentration during the incubation, and t1/2 was determined by the slope (k) of the log-linear regression analysis of the concentration versus time profiles; thus, t1/2=ln 2/k. The CLint, in vitro values were scaled to the in vivo values for human by using physiologically based scaling factors, hepatic microsomal protein concentrations (45 mg protein/g liver), and liver weights (21 g/kg body weight). The equation CLint=CLint, in vitro×(mg protein/g liver weight)×(g liver weight/kg body weight) was used. The in vivo hepatic clearance (CLH) was then calculated by using CLint and hepatic blood flow, Q (20 mL·min^−1·kg^−1 in humans) in the well-stirred liver model disregarding all binding from CLH=(Q×CLint)/(Q+CLint). The hepatic extraction ratio was calculated as CLH divided by Q.

TRKA (Homo sapiens, UniProt P04629), sequence (P04629 33-796, species assumed): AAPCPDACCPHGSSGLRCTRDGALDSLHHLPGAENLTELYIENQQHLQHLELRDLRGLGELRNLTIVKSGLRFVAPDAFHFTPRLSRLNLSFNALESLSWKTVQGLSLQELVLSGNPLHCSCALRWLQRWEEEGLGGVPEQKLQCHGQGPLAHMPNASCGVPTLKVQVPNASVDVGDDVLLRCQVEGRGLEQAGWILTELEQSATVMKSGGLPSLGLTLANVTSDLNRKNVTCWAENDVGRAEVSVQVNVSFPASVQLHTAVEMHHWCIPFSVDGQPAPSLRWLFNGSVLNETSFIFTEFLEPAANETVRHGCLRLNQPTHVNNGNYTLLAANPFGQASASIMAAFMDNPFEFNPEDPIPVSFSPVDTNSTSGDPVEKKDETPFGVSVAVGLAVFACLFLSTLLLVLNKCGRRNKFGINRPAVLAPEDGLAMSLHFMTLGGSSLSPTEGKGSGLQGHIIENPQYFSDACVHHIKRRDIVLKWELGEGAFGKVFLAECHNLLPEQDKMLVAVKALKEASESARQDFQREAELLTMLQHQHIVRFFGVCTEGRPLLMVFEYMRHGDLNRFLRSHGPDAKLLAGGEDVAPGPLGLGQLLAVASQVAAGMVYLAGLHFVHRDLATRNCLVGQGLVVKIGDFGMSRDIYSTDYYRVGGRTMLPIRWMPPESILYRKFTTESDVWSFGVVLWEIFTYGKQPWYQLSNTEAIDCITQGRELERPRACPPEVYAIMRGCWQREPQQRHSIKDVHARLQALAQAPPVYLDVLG

Row | Structure (SMILES) | IC50 [1] | IC50 (TRKA [2]) | Selectivity TRKA/JH2 V617F (TRKA [3]) | Selectivity KIT/JH2 V617F (KIT) | Selectivity FLT3/JH2 V617F (FLT3) | h-IntCL [4]
1 | Cn1cc(-c2[nH]c3ncc4c(c3c2-c2ccc3c(cnn3C)c2)n([C@H]2CC[C@@H](CC#N)CC2)c(=O)n4C)cn1 [C, reference compound] | ≤ 300 nM | < 25 nM | * (selectivity of ≤500-fold) | * (selectivity of ≤500-fold) | * (selectivity of ≤500-fold) | ‡ ‡ ‡ (h-IntCL of >1 L/h/kg)
2 | COc1ccc(-c2c(-c3cnn(Cc4ccncc4)c3)[nH]c3ncc4c(c23)n(C2CCCC2)c(=O)n4C)cc1 [Comparative Example D, reference compound] | ≤ 300 nM |  |  |  |  | ‡ ‡ ‡ (h-IntCL of >1 L/h/kg)
